# Test results: patent US7371731B2, “Methods for using glucose pentasulfate for treating amyloid associated with type II diabetes” (priority 1998, dated 2008)
# Like-named read-outs stand apart in the source and are kept apart here.
# Assays:
# [1] = molecular target: T1, Aβ (1-40) (Homo sapiens, UniProt P05067); assay: Thioflavin T fluorometry assay of Aβ (1-40) amyloid fibril formation; assay type: biochemical; details: for effect on Aβ (1-40) amyloid fibril formation (in words): 1.25 mM compound (1:50 M ratio), 1-week incubation
# T1 construct: 25 μM of Aβ (1-40)(Bachem Inc., Torrance, Calif., USA; Lot #WM365); purchased Bachem Inc., Torrance, Calif., USA
# T1 sequence (P05067 672-711 limits assumed): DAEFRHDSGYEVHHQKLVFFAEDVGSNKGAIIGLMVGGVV
# From the text: A previously described method of measuring amyloid fibril formation utilizing Thioflavin T fluorometry (H Naiki et al, Lab. Invest. 65:104-110, 1991; H Levine III, Protein Sci. 2:404-410, 1993; H Levine III, Amyloid: Int. J. Exp. Clin. Invest. 2:1-6, 1995; H Naiki and K. Nakakuki, Lab. Invest. 74:374-383, 1996) was employed initially to identify potential therapeutic compounds capable of inhibiting Aβ amyloid fibril formation. Using this sensitive assay, any decreases or increases in fluorescence were previously shown to correlate with a decrease or increase in the amount of amyloid fibrils (H Naiki et al, Lab. Invest. 65:104-110, 1991; H Levine III, Protein Sci. 2:404-410, 1993; H Levine III, Amyloid: Int. J. Exp. Clin. Invest. 2:1-6, 1995; H Naiki and K. Nakakuki, Lab. Invest. 74:374-383, 1996), allowing one to determine the identification and extent of potential inhibitors and/or enhancers of amyloid fibril formation.
# In an initial set of studies, the effects of various compounds on Aβ (1-40) fibrillogenesis was assessed. For these initial studies, 25 μM of Aβ (1-40)(Bachem Inc., Torrance, Calif., USA; Lot #WM365) was incubated in microcentrifuge tubes at 37° C. for 1 week (in triplicate), either alone, or in the presence of 1.25 mM (ie. 1:50 M ratio of Aβ:test compound) of various commercially available compounds (described below) in 150 mM Tris HCl, 10 mM NaCl, pH 7.0 (TBS). The compounds tested included glucose pentasulfate (PTI-48579, potassium salt; molecular weight=771), mannose pentasulfate (PTI-07499, potassium salt; molecular weight=771), methyl alpha-D-glucopyranoside 2,3,4,6-tetrasulfate (PTI-20049, potassium salt; molecular weight=667), methyl alpha-D-mannopyranoside 2,3,4,6-tetrasulfate (PTI-20814, potassium salt; molecular weight=667), sucrose heptasulfate (PTI-70936, potassium salt; molecular weight=1169), sucrose hexasulfate (PTI-70946, potassium salt; molecular weight=1052), and sucrose octasulfate (PTI-70011, potassium salt; molecular weight=1288).
# (§1) To assess the effects of each compound on Aβ (1-40) fibril formation, 50 μl aliquots were taken from each tube for analysis at 1 hr, 1 day, 3 days, and 1 week. For each determination described above, following each incubation period, 50 μl of Aβ+/−test compounds were added to 1.2 ml of 100 μM Thioflavin T (Sigma Chemical Co., St. Louis, Mo.) in 50 mM NaPO4 (pH 6.0). […] Fluorescence emission at 482 nm was measured on a Turner instrument-model 450 fluorometer at an excitation wavelength of 450 nm. For each determination, the fluorometer was calibrated by zeroing in the presence of the Thioflavin T reagent alone, and by seting the 50 ng/ml riboflavin (Sigma Chemical Co., St. Louis, Mo.) in the Thioflavin T reagent to 1800 fluorescence units. All fluorescence determinations were based on these references and any fluorescence given off by any of the compounds in the presence of the Thioflavin T reagent was always subtracted from all pertinent readings.
# For all fibrillogenesis studies utilizing Thioflavin T fluorometry, comparisons of Aβ in the presence or absence of test compounds were based on paired Student's t tests with data shown as mean+/−standard deviation. Significance was reported at the 95% (p<0.05), 99% (p<0.01) and 99.9% (p<0.001) confidence levels.
# In this study, the dose-dependent effects of glucose pentasulfate (PTI-48579) on Aβ (1-40) fibrillogenesis was determined using the Thioflavin T fluorometry assay. 25 μM of Aβ (1-40) (Bachem Inc., Torrance, Calif., USA; Lot #WM365) was incubated in microcentrifuge tubes at 37° C. for 1 week (in triplicate), either alone, or in the presence of 1.25 mM (ie. 1:50 M ratio of Aβ:PTI-48579), 0.41 mM, 0.138 mM and 0.046 mM of glucose pentasulfate in 150 mM Tris HCl, 10 mM NaCl, pH 7.0 (TBS). 50 μl aliquots were taken from each tube for analysis at 1 hr, 1 day, 3 days, and 1 week using Thioflavin T fluorometry as described in section 4.1. […]
# [2] = molecular target: T2, Aβ-heparan sulfate binding (Homo sapiens, UniProt P05067); assay: Solid phase binding immunoassay, Aβ-heparan sulfate binding; details: 2.5 to 0.093 mM; data not shown
# T2 construct: 25 μM of Aβ (1-40)(Bachem Inc., Torrance, Calif., USA; Lot #WM365); purchased Bachem Inc., Torrance, Calif., USA
# T2 sequence (P05067 672-711 limits assumed): as above
# Method: 12 μg of heparin (molecular weight=5,000; obtained from the Sigma Chemical Company, St. Louis, Mo., USA) or heparan sulfate (molecular weight=˜70,000; obtained from Seikagaku America, Rockville, Md.) in 80 μl of Tris-buffered saline containing 100 mM Tris-HCl, 50 mM NaCl, 3 mM NaN3, pH 9.0 (TBS) was allowed to bind overnight at 4° C. to microtiter wells (Nunc plates, Maxisorb). The next day all of the microtiter wells were blocked for 2 hours by incubating with 300 μl of TBS with 0.05% Tween-20 (TTBS) plus 1% bovine serum albumin (BSA) (obtained from the Sigma Chemical Company, St. Louis, Mo., USA). Then, 100 μl of 5 μM Aβ 1-40 (Bachem Inc., Torrance, Calif., USA; Lot #WM365) in TTBS containing 0.05% albumin in the presence or absence of glucose pentasulfate at concentrations of 2.5 mM, 0.83 mM, 0.28 mM and 0.093 mM were placed in wells (in triplicate) containing substrate bound perlecan or blank, and allowed to bind overnight at 4° C. The next day, the wells were rinsed once with TTBS, and then probed for 45 minutes with 100 μl of anti-6E10 (Senetek, Maryland Heights, Mo.)(which recognizes Aβ 1-17) diluted 1:1000 with TTBS. […] The reaction was stopped with 50 μl of 4N H2SO4 and read on a Model 450 microplate reader (Biorad, Hercules, Calif., USA) at 490 nm.
# [3] = molecular target: T3, Aβ-heparin binding (Homo sapiens, UniProt P05067); assay: Solid phase binding immunoassay, binding of Aβ to substrate bound heparin; details: 5 μM Aβ 1-40
# T3 construct: 25 μM of Aβ (1-40)(Bachem Inc., Torrance, Calif., USA; Lot #WM365); purchased Bachem Inc., Torrance, Calif., USA
# T3 sequence (P05067 672-711 limits assumed): as above
# Method: 12 μg of heparin (molecular weight=5,000; obtained from the Sigma Chemical Company, St. Louis, Mo., USA) or heparan sulfate (molecular weight=˜70,000; obtained from Seikagaku America, Rockville, Md.) in 80 μl of Tris-buffered saline containing 100 mM Tris-HCl, 50 mM NaCl, 3 mM NaN3, pH 9.0 (TBS) was allowed to bind overnight at 4° C. to microtiter wells (Nunc plates, Maxisorb). The next day all of the microtiter wells were blocked for 2 hours by incubating with 300 μl of TBS with 0.05% Tween-20 (TTBS) plus 1% bovine serum albumin (BSA) (obtained from the Sigma Chemical Company, St. Louis, Mo., USA). Then, 100 μl of 5 μM Aβ 1-40 (Bachem Inc., Torrance, Calif., USA; Lot #WM365) in TTBS containing 0.05% albumin in the presence or absence of glucose pentasulfate at concentrations of 2.5 mM, 0.83 mM, 0.28 mM and 0.093 mM were placed in wells (in triplicate) containing substrate bound perlecan or blank, and allowed to bind overnight at 4° C. The next day, the wells were rinsed once with TTBS, and then probed for 45 minutes with 100 μl of anti-6E10 (Senetek, Maryland Heights, Mo.)(which recognizes Aβ 1-17) diluted 1:1000 with TTBS. This was followed by rinsing once with TTBS and probed for 45 minutes with biotinylated goat-anti mouse (diluted 1:1000) containing streptavidin-peroxidase or anti-biotin-peroxidase (1:500 dilution of a 2 μg/ml solution) (Sigma Chemical Co., St. Louis, Mo.) in TTBS containing 0.1% BSA. The wells were then rinsed 3 times with TTBS and 100 μl of a substrate solution (OPD-Sigma Fast from Sigma Chemical Co., St. Louis, Mo.) was added to each well and allowed to develop for 5 minutes or until a significant color change was observed. The reaction was stopped with 50 μl of 4N H2SO4 and read on a Model 450 microplate reader (Biorad, Hercules, Calif., USA) at 490 nm.
# [4] = molecular target: T4, human islet amyloid polypeptide (Homo sapiens, UniProt P10997); assay: Thioflavin T fluorometry assay of islet amyloid polypeptide (amylin) fibrils; assay type: biochemical; details: 1.25 mM
# T4 construct: consists of a 37 amino acid protein known as islet amyloid polypeptide or amylin; purchased Bachem Inc, Torrance, Calif., USA
# T4 sequence (P10997 34-70 limits assumed): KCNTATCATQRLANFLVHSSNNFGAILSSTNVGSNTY
# Method: as §1
# For this study, the method of Thioflavin T fluorometry as described above was used. Briefly, 25 μM of human islet amyloid polypeptide (Bachem Inc, Torrance, Calif., USA, Lot # WL934) was incubated in microcentrifuge tubes at 37° C. for 1 week (in triplicate), either alone, or in the presence of 1.25 mM glucose pentasulfate (PTI-48579; molecular weight=771) or mannose pentasulfate (PTI-07499; molecular weight=771). To assess the effects of glucose pentasulfate and mannose pentasulfate on islet amyloid polypeptide fibrillogenesis, 50 μl aliquots were taken from each tube for analysis at 1 hr, 1 day, 2 days, 3 days, 4 days and 1 week. For each determination described above, following each incubation period, 50 μl aliquots of islet amyloid polypeptide+/−glucose pentasulfate or mannose pentasulfate were added to 1.2 ml of 100 μM Thioflavin T (Sigma Chemical Co., St. Louis, Mo.) in 50 mM NaPO4 (pH 6.0) for fluorometry readings as described in section 4.1.
# [5] = molecular target: T5, pre-formed Aβ (1-40) amyloid fibrils (Homo sapiens, UniProt P05067); assay: Thioflavin T fluorometry assay of dissolution of pre-formed Aβ (1-40) amyloid fibrils; assay type: biochemical; details: 25 μM fibrillized Aβ, 4 day incubation
# T5 construct: 25 μM of Aβ (1-40)(Bachem Inc., Torrance, Calif., USA; Lot #WM365); purchased Bachem Inc., Torrance, Calif., USA
# T5 sequence (P05067 672-711 limits assumed): as the sequence (P05067 672-711 limits assumed) above
# Method: as §1
# For this study, 1 mg of Aβ (1-40) (Bachem Inc., Torrance, Calif., USA; Lot #WM365) was dissolved in 1.0 ml of double distilled water (1 mg/ml solution) and then incubated at 37° C. for 1 week. 25 μM of fibrillized Aβ was then incubated at 37° C. in the presence or absence of glucose pentasulfate at concentrations of 1.25 mM, 0.63 mM, 0.31 mM and 0.16 mM containing 150 mM Tris HCl, 10 mM NaCl, pH 7.0. Following a 4 day incubation, 50 μl aliquots were added to 1.2 ml of 100 μM Thioflavin T (Sigma Chemical Co., St. Louis, Mo.) in 50 mM NaPO4 (pH 6.0) for fluorometry readings as described in section 4.1.
compound,measurement,setting,value
sucrose heptasulfate [reference compound],effect on Aβ (1-40) amyloid fibril formation (in words),"[1]; Example 1, 25 μM Aβ (1-40)",ineffective inhibitors
sucrose hexasulfate [reference compound],effect on Aβ (1-40) amyloid fibril formation (in words),"[1]; Example 1, 25 μM Aβ (1-40)",ineffective inhibitors
"O=C[C@H](OS(=O)(=O)O)[C@@H](OS(=O)(=O)O)[C@H](OS(=O)(=O)O)[C@@H](COS(=O)(=O)O)OS(=O)(=O)O [PTI-48579, glucose pentasulfate]",inhibition of Aβ-heparan sulfate binding (in words),[2],significant dose-dependent inhibition
same,inhibition at 93 µM,[3]; 0.093 mM,45%
same,inhibition at 280 µM,[3]; 0.28 mM,74%
same,inhibition at 830 µM,[3]; 0.83 mM,92%
same,inhibition at 2500 µM,[3]; 2.5 mM,78%
same,dissolution of pre-formed amylin fibrils,"[4]; 25 μM islet amyloid polypeptide, 1 week",57%
same,effect on islet amyloid polypeptide fibrillogenesis at earlier time points (in words),"[4]; 1 hour, 1 day and 2 days",initial increase
same,effect on Aβ (1-40) amyloid fibril formation (in words),"[1]; Example 1, 25 μM Aβ (1-40)",inhibited
same,inhibition at 1250 µM,"[1]; Example 1, 25 μM Aβ (1-40), 1.25 mM compound, 37° C., 1 week, read-out: inhibition of Aβ (1-40) amyloid fibril formation",80%
same,inhibition of Aβ amyloid fibril formation (in words),"[1]; Example 1, 1.25 mM compound, 3 days",Significant inhibition
same,inhibition of Aβ fibril formation (in words),"[1]; Example 2, 0.046 mM, 3 days",did not significantly inhibit
same,inhibition of Aβ fibril formation (in words),"[1]; Example 2, 0.138 mM, 3 days",did not significantly inhibit
same,inhibition at 410 µM,"[1]; Example 2, 0.41 mM, 1 week, read-out: inhibition of Aβ (1-40) fibrillogenesis",47%
same,inhibition of Aβ fibril formation (in words),"[1]; Example 2, 0.41 mM, 3 days",did not significantly inhibit
same,inhibition at 1250 µM,"[1]; Example 2, 1.25 mM, 1 week, read-out: inhibition of Aβ (1-40) fibrillogenesis",72%
same,inhibition at 1250 µM,"[1]; Example 2, 1.25 mM, 3 days, read-out: inhibition of Aβ fibril formation",39%
same,dissolution of pre-formed Aβ amyloid fibrils,[5]; 0.16 mM,23%
same,dissolution of pre-formed Aβ amyloid fibrils,[5]; 0.31 mM,31%
same,dissolution of pre-formed Aβ amyloid fibrils,[5]; 0.63 mM,47%
same,dissolution of pre-formed Aβ amyloid fibrils,[5]; 1.25 mM,60%
"O=S(=O)(O)OC[C@H]1O[C@@](COS(=O)(=O)O)(O[C@H]2O[C@H](COS(=O)(=O)O)[C@@H](OS(=O)(=O)O)[C@H](OS(=O)(=O)O)[C@H]2OS(=O)(=O)O)[C@@H](OS(=O)(=O)O)[C@@H]1OS(=O)(=O)O [sucrose octasulfate, reference compound]",effect on Aβ (1-40) amyloid fibril formation (in words),"[1]; Example 1, 25 μM Aβ (1-40)",ineffective inhibitors
